Among the test systems are CCRF-CEM; LOX IMVI; U-251; MDA-N; SR; BT-549; UACC-257; RPMI-8226; MDA-MB-435; IGROV-1; NCI-H226; UACC-62; A549; SNB-75; SNB-19; EKVX; NCI-H460; SK-MEL-28; HCT-116; T47D.
What all share (assay): NCI tumour cell line growth inhibition, 48 h

The structures appear in SMILES notation.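 Protocol summary: plate cells (96-well), add compound at 5 concentrations, incubate 48 h, interpolate endpoints linearly. At the GI50, growth is halved.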 Activity calls are given as the source filed them. Rule as the data show it: active = GI50 up to about 1.1 µM and inactive = higher. Where only a bound is given, the exact number is not on record here.

Turning to `O=[N+]([O-])c1cccc2nc3ccccc3c(NCCCN3CCOCC3)c12`, the GI50 in the assay with CCRF-CEM was < 0.0199 µM (active); in the assay with LOX IMVI it was 0.0442 µM (active); with U-251, 0.0276 µM (active); with MDA-N it was < 0.01 µM (active); in the assay with SR it was < 0.01 µM (active); with BT-549, 0.0273 µM (active). Moreover, the GI50 with UACC-257 was 0.0235 µM (active); in the assay with RPMI-8226, 0.0103 µM (active); with MDA-MB-435 it was < 0.0117 µM (active); with IGROV-1 it was 0.0217 µM (active); with NCI-H226, 0.0213 µM (active); with UACC-62, 0.0163 µM (active). The GI50 was < 0.0121 µM (active) in the assay with A549; 0.0387 µM (active) in the assay with SNB-75; 0.0304 µM (active) in the assay with SNB-19; < 0.0127 µM (active) with EKVX; < 0.01 µM (active) in the assay on NCI-H460; 0.034 µM (active) in the assay on SK-MEL-28. In addition, the GI50 is < 0.01 µM (active) with HCT-116 and 0.0355 µM (active) with T47D.
`Cc1ccc(-c2nnc(-c3ccc4ccccc4c3)o2)cc1`: the GI50 was 3.55 µM (inactive) in the assay with CCRF-CEM; 11.3 µM (inactive) with LOX IMVI; 27.7 µM (inactive) in the assay on U-251; 17.5 µM (inactive) in the assay with MDA-N; 7.36 µM (inactive) with SR; 13.7 µM (inactive) with BT-549. In addition, the GI50 in the assay with UACC-257 was 22.2 µM (inactive); in the assay on RPMI-8226, 6.78 µM (inactive); with MDA-MB-435 it was 8.11 µM (inactive); with IGROV-1, > 91.2 µM (inactive); in the assay on NCI-H226, 25.2 µM (inactive); in the assay on UACC-62, 13 µM (inactive). The GI50 in the assay on A549 is > 100 µM (inactive); with SNB-75, 6.7 µM (inactive); in the assay on SNB-19, > 96.6 µM (inactive); in the assay with EKVX, 40.2 µM (inactive); in the assay on NCI-H460, 83 µM (inactive); with SK-MEL-28, 33.3 µM (inactive). Further, the GI50 with HCT-116 is 23.6 µM (inactive); in the assay with T47D, 19.2 µM (inactive).
On to `C=C1c2nc3ccccc3n2C=C(c2ccccc2)N1c1ccc(Cl)cc1`, for which the GI50 in the assay on CCRF-CEM is > 100 µM (inactive); in the assay with LOX IMVI, 45.8 µM (inactive); in the assay with U-251 it was 13.1 µM (inactive); in the assay with MDA-N, 78.9 µM (inactive); in the assay with SR it was 64.7 µM (inactive); with BT-549 it was 23.4 µM (inactive). In addition, the GI50 in the assay on UACC-257 was 32.2 µM (inactive); with RPMI-8226, > 55.3 µM (inactive); in the assay on MDA-MB-435 it was > 82.8 µM (inactive); in the assay with IGROV-1 it was 10.6 µM (inactive); in the assay on NCI-H226 it was 29 µM (inactive); with UACC-62, 19.1 µM (inactive). In addition, the GI50 in the assay with A549 was 15.8 µM (inactive); in the assay on SNB-75, 5.12 µM (inactive); in the assay with SNB-19, 46.1 µM (inactive); in the assay with EKVX, 13.4 µM (inactive); in the assay with NCI-H460, 12.6 µM (inactive); with SK-MEL-28 it was > 100 µM (inactive). The GI50 in the assay with HCT-116 was 18.5 µM (inactive); in the assay on T47D, 12.6 µM (inactive).

The values above are taken from ChEMBL document CHEMBL1201862, “PubChem BioAssay data set” (2004).
